Measurements taken from ChEMBL document CHEMBL1201862, “PubChem BioAssay data set” (2004).
Active and inactive are the calls of the source.

Experiments:
[1] = toxicity to human HepG2 hepatoma cells – cell-based, plate reader, dry powder samples, cytotoxicity control, dose response (AID 1159569); format: functional;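 further: inhibitor potency with signal falling toward the positive control level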
[2] = P. falciparum Dd2 growth inhibitors, dose response, SYBR Green, cherry-picked samples (AID 1159567); format: functional, cell-based
[3] = growth inhibition of yeast DHODH-expressing 3D7 parasites – SYBR Green, dry powder samples, dose response (AID 1159570); format: functional, cell-based;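 further: parasite growth measured after 72 hours of compound exposure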
[4] = Dd2 parasite growth inhibition in erythrocytes – SYBR Green, dry powder samples, set 9, dose response (AID 1159568); format: functional, cell-based
[5] = growth inhibition of PfATP4-mutant resistant parasites – NITD609-resistant line, SYBR Green, dry powder, dose response (AID 1159571); format: functional, cell-based;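 further: parasites synchronized at ring stage by sorbitol before testing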
[6] = Dd2 malaria parasite growth inhibition potency – SYBR Green, dry powder samples, dose response (AID 1159566); format: functional, cell-based;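 further: potency for growth inhibition with lower SYBR green DNA signal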
[7] = cytotoxicity toward HCT116 cells – cell-based, CellTiter-Glo luminescence, IC50, dose response (AID 1117332); format: functional; details: HCT-116
[8] = HCT116 cell viability decrease, GSK3B pretreatment – CellTiter-Glo, IC50, dose response (AID 1117339); format: functional; details: HCT-116
[9] = RKO cell viability reduction, dose response, CellTiter-Glo luminescence (AID 1117322); format: functional
[10] = Reduced DLD-1 viability, concentration-response, CellTiter-Glo luminescence (AID 1117352); format: functional
[11] = SNU-C1 cell viability reduction, dose response, CellTiter-Glo luminescence (AID 1117323); format: functional, cell-based
[12] = cytotoxicity toward HT-29 cells – cell-based, CellTiter-Glo luminescence, IC50, dose response (AID 1117330); format: functional
[13] = cytotoxicity toward Colo320 cells – cell-based, CellTiter-Glo luminescence, IC50, dose response (AID 1117334); format: functional; details: COLO 320
[14] = CellTiter-Glo luminescence survival assay, SW480 colon tumor line, concentration-response curve, half-maximal inhibitory concentration (AID 1117338); format: functional
[15] = target: T1, Aminopeptidase N (Plasmodium falciparum FcB1/Columbia, UniProt O96935); test: malaria alanyl aminopeptidase activity blockers – biochemical, fluorogenic H-Leu-NHMec substrate, 1536-well (AID 1445); set-up: species or system Plasmodium falciparum 3D7, 3D7
T1 sequence (O96935 whole entry): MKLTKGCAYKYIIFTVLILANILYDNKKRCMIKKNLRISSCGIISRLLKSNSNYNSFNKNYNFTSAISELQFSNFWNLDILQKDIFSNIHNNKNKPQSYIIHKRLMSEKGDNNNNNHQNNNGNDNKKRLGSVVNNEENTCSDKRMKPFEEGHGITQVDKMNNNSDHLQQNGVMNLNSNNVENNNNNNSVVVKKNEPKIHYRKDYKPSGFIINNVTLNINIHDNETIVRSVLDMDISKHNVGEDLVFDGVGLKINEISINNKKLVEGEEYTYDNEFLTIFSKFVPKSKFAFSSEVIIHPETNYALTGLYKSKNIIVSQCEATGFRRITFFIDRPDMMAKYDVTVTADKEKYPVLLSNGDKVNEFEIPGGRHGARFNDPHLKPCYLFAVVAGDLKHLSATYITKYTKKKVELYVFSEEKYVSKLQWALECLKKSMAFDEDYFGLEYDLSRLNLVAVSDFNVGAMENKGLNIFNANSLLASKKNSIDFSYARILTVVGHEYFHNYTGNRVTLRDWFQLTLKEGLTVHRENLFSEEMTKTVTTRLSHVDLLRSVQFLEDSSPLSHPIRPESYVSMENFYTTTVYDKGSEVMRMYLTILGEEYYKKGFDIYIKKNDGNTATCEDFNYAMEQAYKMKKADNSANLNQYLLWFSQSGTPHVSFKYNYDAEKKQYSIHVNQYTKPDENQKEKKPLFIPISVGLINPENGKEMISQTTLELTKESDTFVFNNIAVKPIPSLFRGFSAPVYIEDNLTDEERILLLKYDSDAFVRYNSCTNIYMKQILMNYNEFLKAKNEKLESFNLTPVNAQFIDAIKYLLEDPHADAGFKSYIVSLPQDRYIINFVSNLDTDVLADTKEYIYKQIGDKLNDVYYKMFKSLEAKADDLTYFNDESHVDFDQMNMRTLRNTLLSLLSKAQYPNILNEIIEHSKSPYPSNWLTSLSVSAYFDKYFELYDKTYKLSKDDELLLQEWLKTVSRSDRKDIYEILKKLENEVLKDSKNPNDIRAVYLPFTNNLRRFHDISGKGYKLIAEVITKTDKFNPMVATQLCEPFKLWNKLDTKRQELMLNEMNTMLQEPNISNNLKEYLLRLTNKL

[16] = target: Sphingosine 1-phosphate receptor 2 (Homo sapiens, UniProt O95136); test: Dose Response Cell Based Assay for Agonists of the S1P2 Receptor. [Related pubchem assays: 729, 736, 843 ]; format: functional
[17] = Plasmodium falciparum Dd2 Sybr green parasite growth Measured in Cell-Based and Microorganism Combination System Using Plate Reader - 2153-01_Inhibitor_Dose_DryPowder_Activity_Set10.; format: functional
[18] = viability loss in Vero cells – cytotoxicity control for Vif-APOBEC3G degradation inhibitor project, dose response (AID 1117358); format: functional; details: Vero
[19] = target: ELAV-like protein 1 (Homo sapiens, UniProt Q15717); test: Identify HuR specific inhibitors.; format: functional
[20] = target: T2, Caspase-6 (Homo sapiens, UniProt P55212); test: inhibition of CASP6 peptide cleavage – biochemical, VEID-R110 fluorescence, cherry-pick, dose response (AID 720632)
T2 sequence (P55212 whole entry): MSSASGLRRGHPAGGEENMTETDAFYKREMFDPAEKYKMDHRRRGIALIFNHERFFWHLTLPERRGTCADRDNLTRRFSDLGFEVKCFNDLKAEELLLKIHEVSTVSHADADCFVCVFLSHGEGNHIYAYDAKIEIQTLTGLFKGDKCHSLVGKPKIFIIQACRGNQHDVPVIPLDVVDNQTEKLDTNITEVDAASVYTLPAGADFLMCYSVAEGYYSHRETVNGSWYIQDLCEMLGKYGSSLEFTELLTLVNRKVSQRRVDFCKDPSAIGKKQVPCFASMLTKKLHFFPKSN

[21] = target: T3, Polyadenylate-binding protein 1 (Homo sapiens, UniProt P11940); test: MLLE binding blockers, Cy5 peptide tracer – biochemical, fluorescence polarization, Cy5-PAM2 peptide, secondary, miRNA deadenylation inhibitor project, dose response (AID 602260); format: functional; details: read-out: IC50_Mean
[22] = target: Caspase-9 (Homo sapiens, UniProt P55211); test: inhibitors of purified CASP9 protease – biochemical, fluorescence, plate reader, cherry-picked samples, selectivity assay for caspase-6 inhibitor project, dose response (AID 743293)
[23] = target: Caspase-7 (Homo sapiens, UniProt P55210); test: caspase-7 enzyme inhibition, selectivity check – biochemical, DEVD-R110 fluorescence, cherry-pick, selectivity assay for caspase-6 inhibitor project, dose response (AID 743295); format: functional
[24] = target: T4, Rac GTPase-activating protein 1 (Homo sapiens, UniProt Q9H0H5); test: blockers of MgcRacGAP-driven Rac1 GTP hydrolysis – biochemical, ADP Hunter fluorescence, primary and confirmatory, confirmation (AID 624330); format: functional
T4 sequence (Q9H0H5 whole entry): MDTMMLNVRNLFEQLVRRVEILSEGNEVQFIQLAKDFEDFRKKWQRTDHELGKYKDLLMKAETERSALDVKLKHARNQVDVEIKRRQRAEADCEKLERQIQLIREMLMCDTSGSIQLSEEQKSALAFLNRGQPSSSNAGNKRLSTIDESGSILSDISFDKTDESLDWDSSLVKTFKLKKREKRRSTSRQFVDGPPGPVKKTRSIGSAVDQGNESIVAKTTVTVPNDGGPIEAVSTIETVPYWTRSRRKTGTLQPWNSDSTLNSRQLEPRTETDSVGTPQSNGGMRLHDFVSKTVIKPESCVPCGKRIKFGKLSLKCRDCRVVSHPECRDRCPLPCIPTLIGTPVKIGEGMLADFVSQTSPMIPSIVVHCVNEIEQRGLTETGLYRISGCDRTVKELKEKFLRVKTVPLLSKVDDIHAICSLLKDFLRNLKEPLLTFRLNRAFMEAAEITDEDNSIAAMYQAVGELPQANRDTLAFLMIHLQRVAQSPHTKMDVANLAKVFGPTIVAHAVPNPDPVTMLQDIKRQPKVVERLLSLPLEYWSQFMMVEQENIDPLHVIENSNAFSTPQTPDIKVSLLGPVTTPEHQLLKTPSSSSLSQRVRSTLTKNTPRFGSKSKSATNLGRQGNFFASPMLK

[25] = target: T3, Polyadenylate-binding protein 1; test: MLLE domain peptide-binding blockers, IC50 – biochemical, fluorescence polarization, FITC-PAM2 peptide, dose response (AID 602259); format: functional; details: read-out: IC50_Mean

T3 sequence (P11940 whole entry): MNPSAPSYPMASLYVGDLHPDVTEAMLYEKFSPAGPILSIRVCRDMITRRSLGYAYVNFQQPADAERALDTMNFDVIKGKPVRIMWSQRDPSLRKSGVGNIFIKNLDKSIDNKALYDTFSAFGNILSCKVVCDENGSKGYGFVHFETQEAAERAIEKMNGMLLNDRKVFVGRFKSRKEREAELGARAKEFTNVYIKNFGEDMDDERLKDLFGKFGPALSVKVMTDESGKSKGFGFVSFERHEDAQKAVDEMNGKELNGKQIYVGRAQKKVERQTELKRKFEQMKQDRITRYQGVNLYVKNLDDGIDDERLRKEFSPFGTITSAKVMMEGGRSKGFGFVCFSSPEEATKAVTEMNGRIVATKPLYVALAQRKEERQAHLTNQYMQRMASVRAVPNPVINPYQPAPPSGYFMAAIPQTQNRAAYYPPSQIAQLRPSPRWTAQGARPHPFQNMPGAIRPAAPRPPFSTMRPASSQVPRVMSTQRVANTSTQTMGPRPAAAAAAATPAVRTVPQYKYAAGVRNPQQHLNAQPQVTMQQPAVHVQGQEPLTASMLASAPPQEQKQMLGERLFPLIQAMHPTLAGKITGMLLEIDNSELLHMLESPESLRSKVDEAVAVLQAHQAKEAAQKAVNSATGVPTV
Sequence of Caspase-7 (P55210 24-198 limits assumed): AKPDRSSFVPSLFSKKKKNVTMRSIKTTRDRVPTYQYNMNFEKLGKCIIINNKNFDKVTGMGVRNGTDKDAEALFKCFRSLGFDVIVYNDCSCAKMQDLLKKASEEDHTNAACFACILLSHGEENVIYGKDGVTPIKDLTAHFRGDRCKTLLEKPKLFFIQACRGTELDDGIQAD
Sequence of Caspase-7 (P55210 207-303 limits assumed): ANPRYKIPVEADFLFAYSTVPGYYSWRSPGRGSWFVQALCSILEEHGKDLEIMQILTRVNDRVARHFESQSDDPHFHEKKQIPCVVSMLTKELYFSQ
Sequence of ELAV-like protein 1 (Q15717 whole entry): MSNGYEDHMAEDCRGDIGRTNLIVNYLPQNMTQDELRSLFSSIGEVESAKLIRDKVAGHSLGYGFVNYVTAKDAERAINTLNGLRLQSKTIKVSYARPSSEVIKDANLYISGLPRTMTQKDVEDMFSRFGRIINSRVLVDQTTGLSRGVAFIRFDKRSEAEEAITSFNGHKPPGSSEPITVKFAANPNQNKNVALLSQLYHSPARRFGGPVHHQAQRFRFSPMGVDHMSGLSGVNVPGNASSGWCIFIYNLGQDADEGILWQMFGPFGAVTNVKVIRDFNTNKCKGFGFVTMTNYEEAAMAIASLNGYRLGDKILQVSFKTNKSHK
Sequence of Caspase-9 (P55211 1-315 limits assumed): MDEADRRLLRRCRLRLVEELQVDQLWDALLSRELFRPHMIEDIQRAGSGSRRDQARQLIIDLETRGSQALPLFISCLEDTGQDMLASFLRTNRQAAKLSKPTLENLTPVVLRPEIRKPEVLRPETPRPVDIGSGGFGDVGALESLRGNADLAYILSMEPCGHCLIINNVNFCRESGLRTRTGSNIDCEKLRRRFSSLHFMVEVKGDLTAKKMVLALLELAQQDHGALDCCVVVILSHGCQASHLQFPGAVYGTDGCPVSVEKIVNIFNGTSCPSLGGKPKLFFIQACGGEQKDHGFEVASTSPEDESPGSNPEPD
Sequence of Caspase-9 (P55211 331-416 limits assumed): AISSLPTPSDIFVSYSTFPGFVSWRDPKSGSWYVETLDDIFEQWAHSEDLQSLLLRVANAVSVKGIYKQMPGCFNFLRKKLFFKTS
Sequence of Sphingosine 1-phosphate receptor 2 (O95136 whole entry): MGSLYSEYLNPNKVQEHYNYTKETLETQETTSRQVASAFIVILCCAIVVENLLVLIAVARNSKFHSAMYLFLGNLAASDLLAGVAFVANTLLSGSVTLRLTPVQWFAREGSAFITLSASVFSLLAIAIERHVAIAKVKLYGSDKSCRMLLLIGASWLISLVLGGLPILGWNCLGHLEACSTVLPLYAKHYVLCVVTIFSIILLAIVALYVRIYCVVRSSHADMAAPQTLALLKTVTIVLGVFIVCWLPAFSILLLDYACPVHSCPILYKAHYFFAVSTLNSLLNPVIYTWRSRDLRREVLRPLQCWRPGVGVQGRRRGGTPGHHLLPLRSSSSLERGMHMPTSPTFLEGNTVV

In the case of C/C=C/c1ccc([C@H]2[C@@H](CO)N(CC3CCCCC3)[C@@H]2CNC(C)C)cc1, the AC50 [1] is reported as 49.3 µM (active), the AC50 [2] is reported as 0.494 µM (active) and the AC50 [3] is reported as 0.396 µM (active). The AC50 [4] was 0.316 µM (active), the AC50 [5] was 0.294 µM (active) and the AC50 [6] was 0.231 µM (active).
In the case of CO[C@H]1O[C@@H]2O[C@@]3(C)CC[C@H]4[C@H](C)CC[C@@H]([C@@H]1C)[C@@]24OO3, the IC50 [7] is reported as > 20 µM (inactive), the IC50 [8] is reported as > 20 µM (inactive) and the IC50 [9] is reported as > 20 µM (inactive). The IC50 [10] was > 20 µM (inactive), the IC50 [11] was > 20 µM (inactive) and the IC50 [12] was > 20 µM (inactive). For the same compound, the IC50 [13] was > 20 µM (inactive) and the IC50 [14] was > 20 µM (inactive).
With O=C(Nc1ccccn1)Nc1cccs1 the IC50 [15] was 61.8 µM (active) and the EC50 [16] was > 50 µM (not active).
In the case of COc1ccc(-c2ccccc2[C@H]2[C@@H](C#N)N(C(=O)C3CCCC3)[C@H]2CO)cc1, the AC50 [1] is reported as 63.3 µM (active), the AC50 [17] is reported as 1.11 µM (active) and the AC50 [2] is reported as 0.479 µM (active). The AC50 [3] was 0.368 µM (active), the AC50 [5] was 1.78 µM (active) and the AC50 [6] was 0.346 µM (active).
For CSc1cccc(-n2cc(-c3ccc4c(c3)OCO4)nc2O)c1, the CC50 [18] was > 40 µM (active).
For CSC1=NC(=O)/C(=N\Nc2ccc([As](=O)(O)O)cc2)C(N)=N1, the IC50 [19] was 2.7 µM (inactive).
With COc1cc(NC(C)CCCNC(C)C)c2ncccc2c1OC (stereo not given) the AC50 [20] was 1.52 µM (active), the IC50 [21] was > 66 µM (inactive) and the AC50 [22] was > 70 µM (inactive). The AC50 [23] was 23.2 µM (active), the IC50 [24] was 31.7 µM (active) and the IC50 [25] was 49.3 µM (inactive).
